From patent US12122763B2, “Substituted piperidines for androgen receptor degradation” (UBIX THERAPEUTICS, INC., priority 2020, dated 2024)

Biological target: T1, Androgen Receptor (AR) protein (Homo sapiens, UniProt P10275, T878A)
T1 construct: endogenous in cells; host or cells: LNCaP
Assay: Androgen Receptor (AR) protein degradation assay in LNCaP cells, western blotting
Assay type: cell-based
Conditions: 20 h; for inhibition at 0.01 µM: 0.01 μM compound; for inhibition at 0.1 µM: 0.1 μM compound; for inhibition at 1 µM: 1 μM compound; for inhibition at 10 µM: 10 μM compound
Method in brief: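 AR protein level was detected by western blot (ECL) against GAPDH or β-actin controls, with 8 μg lysate protein loaded per lane after BCA quantification. Lysates came from LNCaP cells exposed to test compound for 20 h, following 3 days of growth in RPMI/10% FBS.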

T1 sequence (P10275 whole entry T878A): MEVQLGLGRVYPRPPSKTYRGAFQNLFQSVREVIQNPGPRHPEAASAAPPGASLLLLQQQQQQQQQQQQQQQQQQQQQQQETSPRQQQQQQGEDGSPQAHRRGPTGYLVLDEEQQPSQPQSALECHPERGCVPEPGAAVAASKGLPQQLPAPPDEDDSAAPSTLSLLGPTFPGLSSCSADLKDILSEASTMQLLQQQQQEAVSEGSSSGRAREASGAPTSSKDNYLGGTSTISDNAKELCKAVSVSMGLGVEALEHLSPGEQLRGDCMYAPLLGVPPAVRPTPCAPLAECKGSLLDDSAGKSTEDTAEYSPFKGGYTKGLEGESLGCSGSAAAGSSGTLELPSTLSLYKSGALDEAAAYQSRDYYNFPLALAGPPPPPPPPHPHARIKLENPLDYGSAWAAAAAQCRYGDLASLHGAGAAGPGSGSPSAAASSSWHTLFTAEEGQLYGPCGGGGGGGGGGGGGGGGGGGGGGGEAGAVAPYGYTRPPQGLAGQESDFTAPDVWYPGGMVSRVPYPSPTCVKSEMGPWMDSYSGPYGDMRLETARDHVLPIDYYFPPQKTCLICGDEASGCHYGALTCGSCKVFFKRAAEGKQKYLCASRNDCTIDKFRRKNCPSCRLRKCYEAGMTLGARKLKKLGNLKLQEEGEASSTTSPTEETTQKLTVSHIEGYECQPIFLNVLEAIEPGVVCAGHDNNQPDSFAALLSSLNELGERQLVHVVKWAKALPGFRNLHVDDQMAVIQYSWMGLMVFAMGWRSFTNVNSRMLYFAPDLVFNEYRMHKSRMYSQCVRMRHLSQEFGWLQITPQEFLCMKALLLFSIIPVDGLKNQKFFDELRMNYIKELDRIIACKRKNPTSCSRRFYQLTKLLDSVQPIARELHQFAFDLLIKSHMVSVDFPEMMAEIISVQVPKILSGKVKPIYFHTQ
T1 sequence (Q96SW2 whole entry partner): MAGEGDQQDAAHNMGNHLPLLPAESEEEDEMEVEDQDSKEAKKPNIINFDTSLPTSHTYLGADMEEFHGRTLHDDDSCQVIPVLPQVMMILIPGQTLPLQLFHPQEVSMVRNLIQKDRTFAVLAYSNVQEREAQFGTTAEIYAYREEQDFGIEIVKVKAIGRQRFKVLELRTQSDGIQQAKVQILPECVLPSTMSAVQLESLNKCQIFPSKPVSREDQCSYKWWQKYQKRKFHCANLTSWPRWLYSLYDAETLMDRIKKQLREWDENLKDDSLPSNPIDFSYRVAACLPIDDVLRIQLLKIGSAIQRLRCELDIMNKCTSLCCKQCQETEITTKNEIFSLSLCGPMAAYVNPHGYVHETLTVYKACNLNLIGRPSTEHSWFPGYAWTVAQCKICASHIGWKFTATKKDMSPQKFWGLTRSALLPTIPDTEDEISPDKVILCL

**Q.** Which inhibition at 0.01 µM does the source give for `N#Cc1ccc(N2CCC(C(=O)Nc3ccc(N4CCN(CCC5CCN(c6ccc7c(c6)C(=O)N(C6CCC(=O)NC6=O)C7=O)CC5)CC4)cn3)CC2)cc1Cl` (stereo not shown) [Example 120, 1-(3-chloro-4-cyanophenyl)-N-(5-(4-(2-(1-(2-(2,6-dioxopiperidin-3-yl)-1,3-dioxoisoindolin-5-yl)piperidin-4-yl)ethyl)piperazin-1-yl)pyridin-2-yl)piperidine-4-carboxamide] here?
**A.** 0%

**Q.** And the inhibition at 0.1 µM?
**A.** 88%

**Q.** What about the inhibition at 1 µM of the same compound?
**A.** 96%

**Q.** For `N#Cc1ccc(N2CCC(C(=O)Nc3ccc(N4CC5(CCN(CC6CCN(c7ccc8c(c7)C(=O)N(C7CCC(=O)NC7=O)C8=O)CC6)CC5)C4)cn3)CC2)cc1C(F)(F)F` (stereo not shown) [Example 121, 1-(4-cyano-3-(trifluoromethyl)phenyl)-N-(5-(7-((1-(2-(2,6-dioxopiperidin-3-yl)-1,3-dioxoisoindolin-5-yl)piperidin-4-yl)methyl)-2,7-diazaspiro[3.5]nonan-2-yl)pyridin-2-yl)piperidine-4-carboxamide], which inhibition at 0.01 µM is on record?
**A.** 81%

**Q.** And the inhibition at 0.1 µM?
**A.** 98%

**Q.** What about the inhibition at 1 µM of the same compound?
**A.** 98%

**Q.** Which inhibition at 0.01 µM does the source give for `N#Cc1ccc(N2CCC(C(=O)Nc3ccc(N4CC5(CCN(CC6CCN(c7ccc8c(c7)C(=O)N(C7CCC(=O)NC7=O)C8=O)CC6)CC5)C4)cn3)CC2)cc1Cl` (stereo not shown) [Example 122, 1-(3-chloro-4-cyanophenyl)-N-(5-(7-((1-(2-(2,6-dioxopiperidin-3-yl)-1,3-dioxoisoindolin-5-yl)piperidin-4-yl)methyl)-2,7-diazaspiro[3.5]nonan-2-yl)pyridin-2-yl)piperidine-4-carboxamide] here?
**A.** 71%

**Q.** What about the inhibition at 0.1 µM of the same compound?
**A.** 76%

**Q.** What about the inhibition at 1 µM of the same compound?
**A.** 74%

**Q.** How did the inhibition at 0.01 µM turn out when `N#Cc1ccc(N2CCC(C(=O)Nc3ccc(N4CC5(CCN(CC6CN(c7ccc8c(c7)C(=O)N(C7CCC(=O)NC7=O)C8=O)C6)CC5)C4)cn3)CC2)cc1C(F)(F)F` (stereo not shown) [Example 123, 1-(4-cyano-3-(trifluoromethyl)phenyl)-N-(5-(7-((1-(2-(2,6-dioxopiperidin-3-yl)-1,3-dioxoisoindolin-5-yl)azetidin-3-yl)methyl)-2,7-diazaspiro[3.5]nonan-2-yl)pyridin-2-yl)piperidine-4-carboxamide] was run?
**A.** 55%

**Q.** And the inhibition at 0.1 µM?
**A.** 91%

**Q.** And the inhibition at 1 µM?
**A.** 97%

**Q.** What does the source list for `N#Cc1ccc(N2CCC(C(=O)Nc3ccc(N4CC5(CCN(CC6CN(c7ccc8c(c7)C(=O)N(C7CCC(=O)NC7=O)C8=O)C6)CC5)C4)cn3)CC2)cc1Cl` (stereo not shown) [Example 124, 1-(3-chloro-4-cyanophenyl)-N-(5-(7-((1-(2-(2,6-dioxopiperidin-3-yl)-1,3-dioxoisoindolin-5-yl)azetidin-3-yl)methyl)-2,7-diazaspiro[3.5]nonan-2-yl)pyridin-2-yl)piperidine-4-carboxamide]?
**A.** inhibition at 0.01 µM: 52%; inhibition at 0.1 µM: 88%; inhibition at 1 µM: 96%

**Q.** What does the source list for `N#Cc1ccc(N2CCC(C(=O)Nc3ccc(N4CC5(CCN(C[C@H]6CCN(c7ccc8c(c7)C(=O)N(C7CCC(=O)NC7=O)C8=O)C6)CC5)C4)cn3)CC2)cc1C(F)(F)F` (stereo partly drawn) [Example 125, 1-(4-cyano-3-(trifluoromethyl)phenyl)-N-(5-(7-(((3R)-1-(2-(2,6-dioxopiperidin-3-yl)-1,3-dioxoisoindolin-5-yl)pyrrolidin-3-yl)methyl)-2,7-diazaspiro[3.5]nonan-2-yl)pyridin-2-yl)piperidine-4-carboxamide]?
**A.** inhibition at 0.01 µM: 25%; inhibition at 0.1 µM: 84%; inhibition at 1 µM: 92%

**Q.** How did the inhibition at 0.01 µM turn out when `N#Cc1ccc(N2CCC(C(=O)Nc3ccc(N4CC5(CCN(C[C@@H]6CCN(c7ccc8c(c7)C(=O)N(C7CCC(=O)NC7=O)C8=O)C6)CC5)C4)cn3)CC2)cc1C(F)(F)F` (stereo partly drawn) [Example 126, 1-(4-cyano-3-(trifluoromethyl)phenyl)-N-(5-(7-(((3S)-1-(2-(2,6-dioxopiperidin-3-yl)-1,3-dioxoisoindolin-5-yl)pyrrolidin-3-yl)methyl)-2,7-diazaspiro[3.5]nonan-2-yl)pyridin-2-yl)piperidine-4-carboxamide] was run?
**A.** 51%

**Q.** And the inhibition at 0.1 µM?
**A.** 89%

**Q.** And the inhibition at 1 µM?
**A.** 96%

**Q.** Which inhibition at 0.01 µM does the source give for `N#Cc1ccc(N2CCC(C(=O)Nc3ccc(N4CCC5(CC4)CN(CC4CCN(c6ccc7c(c6)C(=O)N(C6CCC(=O)NC6=O)C7=O)CC4)C5)cn3)CC2)cc1C(F)(F)F` (stereo not shown) [Example 127, 1-(4-cyano-3-(trifluoromethyl)phenyl)-N-(5-(2-((1-(2-(2,6-dioxopiperidin-3-yl)-1,3-dioxoisoindolin-5-yl)piperidin-4-yl)methyl)-2,7-diazaspiro[3.5]nonan-7-yl)pyridin-2-yl)piperidine-4-carboxamide] here?
**A.** 34%

**Q.** What about the inhibition at 0.1 µM of the same compound?
**A.** 52%

**Q.** And the inhibition at 1 µM?
**A.** 66%

**Q.** With `N#Cc1ccc(N2CCC(C(=O)Nc3ccc(N4CCC5(CC4)CN(CC4CN(c6ccc7c(c6)C(=O)N(C6CCC(=O)NC6=O)C7=O)C4)C5)cn3)CC2)cc1C(F)(F)F` (stereo not shown) [Example 128, 1-(4-cyano-3-(trifluoromethyl)phenyl)-N-(5-(2-((1-(2-(2,6-dioxopiperidin-3-yl)-1,3-dioxoisoindolin-5-yl)azetidin-3-yl)methyl)-2,7-diazaspiro[3.5]nonan-7-yl)pyridin-2-yl)piperidine-4-carboxamide] as the compound, how does the inhibition at 0.01 µM read?
**A.** 28%

**Q.** What about the inhibition at 0.1 µM of the same compound?
**A.** 43%

**Q.** And the inhibition at 1 µM?
**A.** 61%

**Q.** Which inhibition at 0.01 µM does the source give for `N#Cc1ccc(N2CCC(C(=O)Nc3ccc(N4CCC5(CC4)CN(C(=O)C4CCN(c6ccc7c(c6)C(=O)N(C6CCC(=O)NC6=O)C7=O)CC4)C5)cn3)CC2)cc1C(F)(F)F` (stereo not shown) [Example 129, 1-(4-cyano-3-(trifluoromethyl)phenyl)-N-(5-(2-(1-(2-(2,6-dioxopiperidin-3-yl)-1,3-dioxoisoindolin-5-yl)piperidine-4-carbonyl)-2,7-diazaspiro[3.5]nonan-7-yl)pyridin-2-yl)piperidine-4-carboxamide] here?
**A.** 11%

**Q.** And the inhibition at 0.1 µM?
**A.** 42%

**Q.** What about the inhibition at 1 µM of the same compound?
**A.** 71%

**Q.** Which inhibition at 0.01 µM does the source give for `N#Cc1ccc(N2CCC(C(=O)Nc3ccc(N4CCN(CC5CCN(C(=O)CNc6ccc7c(c6)C(=O)N(C6CCC(=O)NC6=O)C7=O)CC5)CC4)cn3)CC2)cc1C(F)(F)F` (stereo not shown) [Example 130, 1-(4-cyano-3-(trifluoromethyl)phenyl)-N-(5-(4-((1-((2-(2,6-dioxopiperidin-3-yl)-1,3-dioxoisoindolin-5-yl)glycyl)piperidin-4-yl)methyl)piperazin-1-yl)pyridin-2-yl)piperidine-4-carboxamide] here?
**A.** 78%

**Q.** And the inhibition at 0.1 µM?
**A.** 95%

**Q.** What about the inhibition at 1 µM of the same compound?
**A.** 95%

**Q.** What about the inhibition at 10 µM of the same compound?
**A.** 93%

**Q.** `N#Cc1ccc(N2CCC(C(=O)Nc3ccc(C#CC4CCN(CC5CCN(c6ccc7c(c6)C(=O)N(C6CCC(=O)NC6=O)C7=O)CC5)CC4)cn3)CC2)cc1C(F)(F)F` (stereo not shown) [Example 131, 1-(4-cyano-3-(trifluoromethyl)phenyl)-N-(5-((1-((1-(2-(2,6-dioxopiperidin-3-yl)-1,3-dioxoisoindolin-5-yl)piperidin-4-yl)methyl)piperidin-4-yl)ethynyl)pyridin-2-yl)piperidine-4-carboxamide] was tested. Which inhibition at 0.01 µM did it give?
**A.** 28%

**Q.** What about the inhibition at 0.1 µM of the same compound?
**A.** 66%

**Q.** What about the inhibition at 1 µM of the same compound?
**A.** 82%

**Q.** What about the inhibition at 10 µM of the same compound?
**A.** 87%

**Q.** Which results are given for `N#Cc1ccc(N2CCC(C(=O)Nc3ccc(C#CC4CCN(CC5CN(c6ccc7c(c6)C(=O)N(C6CCC(=O)NC6=O)C7=O)C5)CC4)cn3)CC2)cc1C(F)(F)F` (stereo not shown) [Example 132, 1-(4-cyano-3-(trifluoromethyl)phenyl)-N-(5-((1-((1-(2-(2,6-dioxopiperidin-3-yl)-1,3-dioxoisoindolin-5-yl)azetidin-3-yl)methyl)piperidin-4-yl)ethynyl)pyridin-2-yl)piperidine-4-carboxamide]?
**A.** inhibition at 0.01 µM: 31%; inhibition at 0.1 µM: 67%; inhibition at 1 µM: 72%; inhibition at 10 µM: 77%

**Q.** How did the inhibition at 0.01 µM turn out when `N#Cc1ccc(N2CCC(C(=O)Nc3ccc(CCC4CCN(CC5CCN(c6ccc7c(c6)C(=O)N(C6CCC(=O)NC6=O)C7=O)CC5)CC4)cn3)CC2)cc1C(F)(F)F` (stereo not shown) [Example 133, 1-(4-cyano-3-(trifluoromethyl)phenyl)-N-(5-(2-(1-((1-(2-(2,6-dioxopiperidin-3-yl)-1,3-dioxoisoindolin-5-yl)piperidin-4-yl)methyl)piperidin-4-yl)ethyl)pyridin-2-yl)piperidine-4-carboxamide] was run?
**A.** 60%

**Q.** And the inhibition at 0.1 µM?
**A.** 93%

**Q.** And the inhibition at 1 µM?
**A.** 98%

**Q.** With `N#Cc1ccc(N2CCC(C(=O)Nc3ccc(C#CCN4CC5(CCN(c6ccc7c(c6)C(=O)N(C6CCC(=O)NC6=O)C7=O)CC5)C4)cn3)CC2)cc1C(F)(F)F` (stereo not shown) [Example 134, 1-(4-cyano-3-(trifluoromethyl)phenyl)-N-(5-(3-(7-(2-(2,6-dioxopiperidin-3-yl)-1,3-dioxoisoindolin-5-yl)-2,7-diazaspiro[3.5]nonan-2-yl)prop-1-yn-1-yl)pyridin-2-yl)piperidine-4-carboxamide] as the compound, how does the inhibition at 0.01 µM read?
**A.** 56%

**Q.** And the inhibition at 0.1 µM?
**A.** 87%

**Q.** And the inhibition at 1 µM?
**A.** 96%

**Q.** And the inhibition at 10 µM?
**A.** 92%

**Q.** Which results are given for `N#Cc1ccc(N2CCC(C(=O)Nc3ccc(N4CCC(CN5CC6(CCN(c7ccc8c(c7)CN(C7CCC(=O)NC7=O)C8=O)CC6)C5)CC4)cn3)CC2)cc1C(F)(F)F` (stereo not shown) [Example 135, 1-(4-cyano-3-(trifluoromethyl)phenyl)-N-(5-(4-((7-(2-(2,6-dioxopiperidin-3-yl)-1-oxoisoindolin-5-yl)-2,7-diazaspiro[3.5]nonan-2-yl)methyl)piperidin-1-yl)pyridin-2-yl)piperidine-4-carboxamide]?
**A.** inhibition at 0.01 µM: 35%; inhibition at 0.1 µM: 94%; inhibition at 1 µM: 85%

**Q.** What does the source list for `N#Cc1ccc(N2CCC(F)(C(=O)Nc3ccc(N4CCC(CN5CC6(CCN(c7ccc8c(c7)CN(C7CCC(=O)NC7=O)C8=O)CC6)C5)CC4)cn3)CC2)cc1C(F)(F)F` (stereo not shown) [Example 136, 1-(4-cyano-3-(trifluoromethyl)phenyl)-N-(5-(4-((7-(2-(2,6-dioxopiperidin-3-yl)-1-oxoisoindolin-5-yl)-2,7-diazaspiro[3.5]nonan-2-yl)methyl)piperidin-1-yl)pyridin-2-yl)-4-fluoropiperidine-4-carboxamide]?
**A.** inhibition at 0.01 µM: 38%; inhibition at 0.1 µM: 92%; inhibition at 1 µM: 91%
